Target: FP receptor (Homo sapiens (Human), UniProt P43088)
Test: In vitro test of inhibition of human FP receptor activity (PGF2α-induced calcium flux in FP-expressing CHEM1 cells)
Assay type: cell-based
Conditions: PGF2α-induced (2 nM) calcium flux in FP-expressing CHEM1 cells; some as mean values from multiple determinations
Text: Table 1 below lists the IC50 values from this assay for individual working examples of the invention (some as mean values from multiple independent individual determinations): […]

Chain of FP receptor (P43088 whole entry): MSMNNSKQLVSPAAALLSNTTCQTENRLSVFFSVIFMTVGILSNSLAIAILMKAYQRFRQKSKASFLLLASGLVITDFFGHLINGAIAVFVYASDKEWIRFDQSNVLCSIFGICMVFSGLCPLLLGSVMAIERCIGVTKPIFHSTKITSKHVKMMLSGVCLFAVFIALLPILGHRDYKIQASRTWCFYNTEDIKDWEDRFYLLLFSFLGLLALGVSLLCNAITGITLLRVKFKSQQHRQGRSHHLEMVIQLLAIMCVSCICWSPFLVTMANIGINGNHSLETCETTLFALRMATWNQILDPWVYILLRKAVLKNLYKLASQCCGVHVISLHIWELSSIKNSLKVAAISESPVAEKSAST

SMILES	IC50 [nM]
Cc1c(-c2ccccc2)nc2ccc(Br)cc2c1C(=O)NCC(CCC(=O)O)c1c(Cl)ccc(Cl)c1Cl (single isomer, unassigned; (+)) [Example 235, (+)-5-{[(6-Bromo-3-methyl-2-phenylquinolin-4-yl)carbonyl]amino}-4-(2,3,6-trichlorophenyl)pentanoic Acid]	32
Cc1c(-c2ccccc2)nc2ccc(Br)cc2c1C(=O)NCC(C)(CCCC(=O)O)c1ccccc1Cl (single isomer, unassigned; (+)) [Example 242, (+)-6-{[(6-Bromo-3-methyl-2-phenylquinolin-4-yl)carbonyl]amino}-5-(2-chlorophenyl)-5-methylhexanoic Acid]	16
Cc1c(-c2ccccc2)nc2ccc(Br)cc2c1C(=O)NCC(C)(CCCC(=O)O)c1ccccc1 (single isomer, unassigned; (+)) [Example 245, (+)-6-{[(6-Bromo-3-methyl-2-phenylquinolin-4-yl)carbonyl]amino}-5-methyl-5-phenylhexanoic Acid]	63
Cc1c(-c2ccccc2)nc2ccc(Br)cc2c1C(=O)NCC(C(=O)O)c1ccccc1 (single isomer, unassigned; (-)) [Example 2, (−)-3-{[(6-Bromo-3-methyl-2-phenylquinolin-4-yl)carbonyl]amino}-2-phenylpropanoic Acid]	160
COc1ccccc1C(CNC(=O)c1c(C)c(-c2ccccc2)nc2ccc(Br)cc12)C(=O)O (single isomer, unassigned; (-)) [Example 8, (−)-3-{[(6-Bromo-3-methyl-2-phenylquinolin-4-yl)carbonyl]amino}-2-(2-methoxyphenyl)propanoic Acid]	130
Cc1c(-c2ccccc2)nc2ccc(Br)cc2c1C(=O)NCC(C)(C(=O)O)c1ccccc1 (single isomer, unassigned; (-)) [Example 14, (−)-3-{[(6-Bromo-3-methyl-2-phenylquinolin-4-yl)carbonyl]amino}-2-methyl-2-phenylpropanoic Acid]	53
CCC(CNC(=O)c1c(C)c(-c2ccccc2)nc2ccc(Br)cc12)(C(=O)O)c1ccccc1 (single isomer, unassigned; (-)) [Example 17, (−)-2-({[(6-Bromo-3-methyl-2-phenylquinolin-4-yl)carbonyl]amino}methyl)-2-phenylbutanoic Acid]	260
Cc1c(-c2ccccc2)nc2ccc(Br)cc2c1C(=O)NCC(O)(C(=O)O)c1ccccc1 (single isomer, unassigned; (-)) [Example 21, (−)-3-{[(6-Bromo-3-methyl-2-phenylquinolin-4-yl)carbonyl]amino}-2-hydroxy-2-phenylpropanoic Acid]	170
Cc1c(-c2ccccc2)nc2ccc(Br)cc2c1C(=O)NCC(C)(C(=O)O)c1ccccc1F (single isomer, unassigned; (-)) [Example 31, (−)-3-{[(6-Bromo-3-methyl-2-phenylquinolin-4-yl)carbonyl]amino}-2-(2-fluorophenyl)-2-methylpropanoic Acid]	68
Cc1c(-c2ccccc2)nc2ccc(Br)cc2c1C(=O)NCC(C)(C(=O)O)c1c(F)cccc1F (single isomer, unassigned; (-)) [Example 34, (−)-3-{[(6-Bromo-3-methyl-2-phenylquinolin-4-yl)carbonyl]amino}-2-(2,6-difluorophenyl)-2-methylpropanoic Acid]	130
Cc1c(-c2ccccc2)nc2ccc(Br)cc2c1C(=O)NCC(C)(C(=O)O)c1ccccc1Cl (single isomer, unassigned; (-)) [Example 36, (−)-3-{[(6-Bromo-3-methyl-2-phenylquinolin-4-yl)carbonyl]amino}-2-(2-chlorophenyl)-2-methylpropanoic Acid]	810
Cc1c(-c2ccccc2)nc2ccc(Br)cc2c1C(=O)NCC(F)(C(=O)O)c1ccccc1 (single isomer, unassigned; (-)) [Example 39, (−)-3-{[(6-Bromo-3-methyl-2-phenylquinolin-4-yl)carbonyl]amino}-2-fluoro-2-phenylpropanoic Acid]	140
Cc1c(-c2ccccc2)nc2ccc(Br)cc2c1C(=O)NCC(C)(C(=O)O)c1cccc(C(F)(F)F)c1 (single isomer, unassigned; (-)) [Example 42, (−)-3-{[(6-Bromo-3-methyl-2-phenylquinolin-4-yl)carbonyl]amino}-2-methyl-2-[3-(trifluoromethyl)phenyl]propanoic Acid]	120
COc1cccc(C(CNC(=O)c2c(C)c(-c3ccccc3)nc3ccc(Br)cc23)C(=O)O)c1 (single isomer, unassigned; (-)) [Example 45, (−)-3-{[(6-Bromo-3-methyl-2-phenylquinolin-4-yl)carbonyl]amino}-2-(3-methoxyphenyl)propanoic Acid]	600
Cc1c(-c2ccccc2)nc2ccc(Br)cc2c1C(=O)NCC(C(=O)O)c1cccc(Cl)c1 (single isomer, unassigned; (-)) [Example 48, (−)-3-{[(6-Bromo-3-methyl-2-phenylquinolin-4-yl)carbonyl]amino}-2-(3-chlorophenyl)propanoic Acid]	33
Cc1cccc(C(CNC(=O)c2c(C)c(-c3ccccc3)nc3ccc(Br)cc23)C(=O)O)c1 (single isomer, unassigned; (-)) [Example 51, (−)-3-{[(6-Bromo-3-methyl-2-phenylquinolin-4-yl)carbonyl]amino}-2-(3-methylphenyl)propanoic Acid]	42
COc1ccccc1C(O)(CNC(=O)c1c(C)c(-c2ccccc2)nc2ccc(Br)cc12)C(=O)O (single isomer, unassigned; (-)) [Example 54, (−)-3-{[(6-Bromo-3-methyl-2-phenylquinolin-4-yl)carbonyl]amino}-2-hydroxy-2-(2-methoxyphenyl)propanoic Acid]	500
COc1cccc(F)c1C(CNC(=O)c1c(C)c(-c2ccccc2)nc2ccc(Br)cc12)C(=O)O (single isomer, unassigned; (-)) [Example 57, (−)-3-{[(6-Bromo-3-methyl-2-phenylquinolin-4-yl)carbonyl]amino}-2-(2-fluoro-6-methoxyphenyl)propanoic Acid]	210
COc1ccccc1C(C)(CNC(=O)c1c(C)c(-c2ccccc2)nc2ccc(Br)cc12)C(=O)O (single isomer, unassigned; (-)) [Example 59, (−)-3-{[(6-Bromo-3-methyl-2-phenylquinolin-4-yl)carbonyl]amino}-2-(2-methoxyphenyl)-2-methylpropanoic Acid]	390
Cc1c(-c2ccccc2)nc2ccc(Br)cc2c1C(=O)NCC(C)(C(=O)O)c1c(F)cccc1Cl (single isomer, unassigned; (-)) [Example 62, (−)-3-{[(6-Bromo-3-methyl-2-phenylquinolin-4-yl)carbonyl]amino}-2-(2-chloro-6-fluorophenyl)-2-methylpropanoic Acid]	43
Cc1c(-c2ccccc2)nc2ccc(Br)cc2c1C(=O)NCC(CC(=O)O)c1ccccc1 (single isomer, unassigned; (-)) [Example 64, (−)-4-{[(6-Bromo-3-methyl-2-phenylquinolin-4-yl)carbonyl]amino}-3-phenylbutanoic Acid]	340
Cc1c(-c2ccccc2)nc2ccc(Br)cc2c1C(=O)NCC(CC(=O)O)c1ccc(Cl)cc1 (single isomer, unassigned; (-)) [Example 68, (−)-4-{[(6-Bromo-3-methyl-2-phenylquinolin-4-yl)carbonyl]amino}-3-(4-chlorophenyl)butanoic Acid]	> 1000
Cc1ccccc1C(CNC(=O)c1c(C)c(-c2ccccc2)nc2ccc(Br)cc12)CC(=O)O (single isomer, unassigned; (-)) [Example 76, (−)-4-{[(6-Bromo-3-methyl-2-phenylquinolin-4-yl)carbonyl]amino}-3-(2-methylphenyl)butanoic Acid]	23
Cc1c(-c2ccccc2)nc2ccc(Br)cc2c1C(=O)NCC(C)(CC(=O)O)c1ncccc1Cl (single isomer, unassigned; (-)) [Example 85, (−)-4-{[(6-Bromo-3-methyl-2-phenylquinolin-4-yl)carbonyl]amino}-3-(3-chloropyridin-2-yl)-3-methylbutanoic Acid]	16
Cc1c(-c2ccccc2)nc2ccc(Br)cc2c1C(=O)NCC(CC(=O)O)c1c(F)cccc1Cl (single isomer, unassigned; (-)) [Example 88, (−)-4-{[(6-Bromo-3-methyl-2-phenylquinolin-4-yl)carbonyl]amino}-3-(2-chloro-6-fluorophenyl)butanoic Acid]	19
Cc1ccc(C(CNC(=O)c2c(C)c(-c3ccccc3)nc3ccc(Br)cc23)CC(=O)O)cc1 (single isomer, unassigned; (-)) [Example 92, (−)-4-{[(6-Bromo-3-methyl-2-phenylquinolin-4-yl)carbonyl]amino}-3-(4-methylphenyl)butanoic Acid]	320
Cc1c(-c2ccccc2)nc2ccc(Br)cc2c1C(=O)NCC(CC(=O)O)c1ccccc1OC(F)(F)F (single isomer, unassigned; (-)) [Example 100, (−)-4-{[(6-Bromo-3-methyl-2-phenylquinolin-4-yl)carbonyl]amino}-3-[2-(trifluoromethoxy)phenyl]butanoic Acid]	20
Cc1c(-c2ccccc2)nc2ccc(Br)cc2c1C(=O)NCC(CC(=O)O)c1ccccn1 (single isomer, unassigned; (-)) [Example 103, (−)-4-{[(6-Bromo-3-methyl-2-phenylquinolin-4-yl)carbonyl]amino}-3-(pyridin-2-yl)butanoic Acid]	290
Cc1c(-c2ccccc2)nc2ccc(Br)cc2c1C(=O)NCC(CC(=O)O)c1ccccc1C(F)(F)F (single isomer, unassigned; (-)) [Example 107, (−)-4-{[(6-Bromo-3-methyl-2-phenylquinolin-4-yl)carbonyl]amino}-3-[2-(trifluoromethyl)phenyl]butanoic Acid]	51
COc1cccnc1C(CNC(=O)c1c(C)c(-c2ccccc2)nc2ccc(Br)cc12)CC(=O)O (single isomer, unassigned; (-)) [Example 109, (−)-4-{[(6-Bromo-3-methyl-2-phenylquinolin-4-yl)carbonyl]amino}-3-(3-methoxypyridin-2-yl)butanoic Acid]	75
